Like-named read-outs stand apart in the source and are kept apart here.
Test system: NCI-H1975 (EGFR-L858R-T790M) cells
Experiment: Inhibitory activity on proliferation of NCI-H1975 (EGFR-L858R-T790M) cells (CTG, 72 h)
Assay type: cell-based
Settings: Homo sapiens
Outline: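 IC50 values come from S-shaped dose-survival fits of CTG signal expressed as % of vehicle. Compound exposure lasted 72 h at 37 °C with 0.1% DMSO; seeding was 3000 A431 cells/well in DMEM+10% FBS and 1000 NCI-H1975 cells/well in RPMI1640+10% FBS.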

[1] = read-out: IC50 (value in brackets)

Row | IC50 (read-out: IC50 (class symbol)) [µM] | IC50 [1] [µM] | SMILES
1 | 0.1 to 0.5 | 0.118 | COc1cc(N2CCC3(CCN(Cc4cccc(NC5CCC(=O)NC5=O)c4)CC3)CC2)c(-c2cnn(C)c2)cc1Nc1ncc(Cl)c(Nc2ccc(-c3ccccc3)cc2P(C)(C)=O)n1 (centres unmarked) [Compound 130, 3-((3-((9-(4-((5-chloro-4-((3-(dimethylphosphoryl)-[1,1′-biphenyl]-4-yl)amino)pyrimidin-2-yl)amino)-5-methoxy-2-(1-methyl-1H-pyrazol-4-yl)phenyl)-3,9-diazaspiro[5.5]undecan-3-yl)methyl)phenyl)amino)piperidine-2,6-dione]
2 | 0.1 to 0.5 | 0.296 | COc1cc(N2CCC(CN3CCN(c4ccc(N5CCC(=O)NC5=O)cc4)CC3)CC2)c(-c2cnn(C)c2)cc1Nc1ncc(Cl)c(Nc2ccccc2P(C)(C)=O)n1 [Compound 132, 1-(4-(4-((1-(4-((5-chloro-4-((2-(dimethylphosphoryl)phenyl)amino)pyrimidin-2-yl)amino)-5-methoxy-2-(1-methyl-1H-pyrazol-4-yl)phenyl)piperidin-4-yl)methyl)piperazin-1-yl)phenyl)dihydropyrimidine-2,4(1H,3H)-dione]
3 | < 0.1 | 0.073 | COc1cc(N2CCC(N3CCC(CN4CCC5(CCCN(c6ccc7c(c6)C(=O)N(C6CCC(=O)NC6=O)C7=O)C5)CC4)CC3)CC2)c(-c2cnn(C)c2)cc1Nc1ncc(Cl)c(Nc2ccc3nccnc3c2P(C)(C)=O)n1 (centres unmarked) [Compound 16, 5-(9-((1′-(4-((5-chloro-4-((5-(dimethylphosphoryl)quinoxalin-6-yl)amino)pyrimidin-2-yl)amino)-5-methoxy-2-(1-methyl-1H-pyrazol-4-yl)phenyl)-[1,4′-bipiperidin]-4-yl)methyl)-2,9-diazaspiro[5.5]undecan-2-yl)-2-(2,6-dioxopiperidin-3-yl)isoindoline-1,3-dione]
4 | < 0.1 | 0.084 | COc1cc(N2CCC(CN3CCC4(CC3)CCN(c3cc5c(cc3F)C(=O)N(C3CCC(=O)NC3=O)C5=O)CC4)CC2)c(-c2cnn(C)c2)cc1Nc1ncc(Cl)c(Nc2ccc(-c3ccccc3)cc2P(C)(C)=O)n1 (centres unmarked) [Compound 52, 5-(9-((1-(4-((5-chloro-4-((3-(dimethylphosphoryl)-[1,1′-biphenyl]-4-yl)amino)pyrimidin-2-yl)amino)-5-methoxy-2-(1-methyl-1H-pyrazol-4-yl)phenyl)piperidin-4-yl)methyl)-3,9-diazaspiro[5.5]undecan-3-yl)-2-(2,6-dioxopiperidin-3-yl)-6-fluoroisoindoline-1,3-dione]
5 | < 0.1 | 0.039 | COc1cc(N2CCC3(CCN(CC4CCN(c5cc6c(cc5F)C(=O)N(C5CCC(=O)NC5=O)C6=O)CC4)CC3)CC2)c(-c2cnn(C)c2)cc1Nc1ncc(Br)c(Nc2ccc3nccnc3c2P(C)(C)=O)n1 (centres unmarked) [Compound 21, 5-(4-((9-(4-((5-bromo-4-((5-(dimethylphosphoryl)quinoxalin-6-yl)amino)pyrimidin-2-yl)amino)-5-methoxy-2-(1-methyl-1H-pyrazol-4-yl)phenyl)-3,9-diazaspiro[5.5]undecan-3-yl)methyl)piperidin-1-yl)-2-(2,6-dioxopiperidin-3-yl)-6-fluoroisoindoline-1,3-dione]
6 | 0.1 to 0.5 | 0.313 | COc1cc(N2CCN(Cc3cccc(NC4CCC(=O)NC4=O)c3)CC2)c(-c2cnn(C)c2)cc1Nc1ncc(Br)c(Nc2ccc(-c3ccccc3)cc2P(C)(C)=O)n1 (centres unmarked) [Compound 74, 3-((3-((4-(4-((5-bromo-4-((3-(dimethylphosphoryl)-[1,1′-biphenyl]-4-yl)amino)pyrimidin-2-yl)amino)-5-methoxy-2-(1-methyl-1H-pyrazol-4-yl)phenyl)piperazin-1-yl)methyl)phenyl)amino)piperidine-2,6-dione]
7 | < 0.1 | 0.082 | COc1cc(N2CCC(CN3CCN(c4ccc(C(=O)NC5CCC(=O)NC5=O)nc4)CC3)CC2)c(-c2cnn(C)c2)cc1Nc1ncc(Br)c(Nc2ccc(-c3ccccc3)cc2P(C)(C)=O)n1 (centres unmarked) [Compound 64, 5-(4-((1-(4-((5-bromo-4-((3-(dimethylphosphoryl)-[1,1′-biphenyl]-4-yl)amino)pyrimidin-2-yl)amino)-5-methoxy-2-(1-methyl-1H-pyrazol-4-yl)phenyl)piperidin-4-yl)methyl)piperazin-1-yl)-N-(2,6-dioxopiperidin-3-yl)picolinamide]
8 | 0.1 to 0.5 | 0.182 | COc1cc(N2CCC(N3CCC(CN4CCN(c5ccc6c(c5)C(=O)N(C5CCC(=O)NC5=O)C6=O)CC4)CC3)CC2)c(-c2cnn(C)c2)cc1Nc1ncc(Cl)c(Nc2ccc(-c3ccccc3)cc2P(C)(C)=O)n1 (centres unmarked) [Compound 53, 5-(4-((1′-(4-((5-chloro-4-((3-(dimethylphosphoryl)-[1,1′-biphenyl]-4-yl)amino)pyrimidin-2-yl)amino)-5-methoxy-2-(1-methyl-1H-pyrazol-4-yl)phenyl)-[1,4′-bipiperidin]-4-yl)methyl)piperazin-1-yl)-2-(2,6-dioxopiperidin-3-yl)isoindoline-1,3-dione]
9 | < 0.1 | 0.035 | COc1cc(N2CCN(C3CN(c4ccc5c(c4)C(=O)N(C4CCC(=O)NC4=O)C5=O)C3)CC2)c(-c2cnn(C)c2)cc1Nc1ncc(Br)c(Nc2ccccc2P(C)(C)=O)n1 (centres unmarked) [Compound 151, 5-(3-(4-(4-((5-bromo-4-((2-(dimethylphosphoryl)phenyl)amino)pyrimidin-2-yl)amino)-5-methoxy-2-(1-methyl-1H-pyrazol-4-yl)phenyl)piperazin-1-yl)azetidin-1-yl)-2-(2,6-dioxopiperidin-3-yl)isoindoline-1,3-dione]
10 | < 0.1 | 0.015 | COc1cc(N2CCN(C3CCN(CC4CCN(c5ccc6c(c5)C(=O)N(C5CCC(=O)NC5=O)C6=O)CC4)CC3)CC2)c(-c2cnn(C)c2)cc1Nc1ncc(Br)c(Nc2ccc3nccnc3c2P(C)(C)=O)n1 (centres unmarked) [Compound 31, 5-(4-((4-(4-(4-((5-bromo-4-((5-(dimethylphosphoryl)quinoxalin-6-yl)amino)pyrimidin-2-yl)amino)-5-methoxy-2-(1-methyl-1H-pyrazol-4-yl)phenyl)piperazin-1-yl)piperidin-1-yl)methyl)piperidin-1-yl)-2-(2,6-dioxopiperidin-3-yl)isoindoline-1,3-dione]
11 | 0.1 to 0.5 | 0.393 | COc1cc(N2CCC(CN3CCN(c4ccc(N5CCC(=O)NC5=O)cc4)CC3)CC2)c(-c2cnn(C)c2)cc1Nc1ncc(Cl)c(Nc2ccc(-c3ccccc3)cc2P(C)(C)=O)n1 [Compound 136, 1-(4-(4-((1-(4-((5-chloro-4-((3-(dimethylphosphoryl)-[1,1′-biphenyl]-4-yl)amino)pyrimidin-2-yl)amino)-5-methoxy-2-(1-methyl-1H-pyrazol-4-yl)phenyl)piperidin-4-yl)methyl)piperazin-1-yl)phenyl)dihydropyrimidine-2,4(1H,3H)-dione]
12 | < 0.1 | 0.028 | COc1cc(N2CCC(N3CCC4(CCCN(c5cc6c(cc5F)C(=O)N(C5CCC(=O)NC5=O)C6=O)C4)CC3)CC2)c(-c2cnn(C)c2)cc1Nc1ncc(Br)c(Nc2ccc3nccnc3c2P(C)(C)=O)n1 (centres unmarked) [Compound 33, 5-(9-(1-(4-((5-bromo-4-((5-(dimethylphosphoryl)quinoxalin-6-yl)amino)pyrimidin-2-yl)amino)-5-methoxy-2-(1-methyl-1H-pyrazol-4-yl)phenyl)piperidin-4-yl)-2,9-diazaspiro[5.5]undecan-2-yl)-2-(2,6-dioxopiperidin-3-yl)-6-fluoroisoindoline-1,3-dione]
13 | < 0.1 | 0.021 | COc1cc(N2CCC(CN3CCN(c4ccc(NC5CCC(=O)NC5=O)cc4F)CC3)CC2)c(-c2cnn(C)c2)cc1Nc1ncc(Cl)c(Nc2ccc(F)cc2P(C)(C)=O)n1 (centres unmarked) [Compound 159, 3-((4-(4-((1-(4-((5-chloro-4-((2-(dimethylphosphoryl)-4-fluorophenyl)amino)pyrimidin-2-yl)amino)-5-methoxy-2-(1-methyl-1H-pyrazol-4-yl)phenyl)piperidin-4-yl)methyl)piperazin-1-yl)-3-fluorophenyl)amino)piperidine-2,6-dione]
14 | < 0.1 | 0.052 | COc1cc(N2CCC(N3CCN(CC4CCN(c5cc6c(cc5F)C(=O)N(C5CCC(=O)NC5=O)C6=O)CC4)CC3)CC2)c(-c2cnn(C)c2)cc1Nc1ncc(Cl)c(Nc2ccc3nccnc3c2P(C)(C)=O)n1 (centres unmarked) [Compound 5, 5-(4-((4-(1-(4-((5-chloro-4-((5-(dimethylphosphoryl)quinoxalin-6-yl)amino)pyrimidin-2-yl)amino)-5-methoxy-2-(1-methyl-1H-pyrazol-4-yl)phenyl)piperidin-4-yl)piperazin-1-yl)methyl)piperidin-1-yl)-2-(2,6-dioxopiperidin-3-yl)-6-fluoroisoindoline-1,3-dione]
15 | < 0.1 | 0.033 | COc1cc(N2CCC(N3CCN(CC4CCN(c5cc6c(cc5F)C(=O)N(C5CCC(=O)NC5=O)C6=O)CC4)CC3)CC2)c(-c2cnn(C)c2)cc1Nc1ncc(Br)c(Nc2ccc3nccnc3c2P(C)(C)=O)n1 (centres unmarked) [Compound 29, 5-(4-((4-(1-(4-((5-bromo-4-((5-(dimethylphosphoryl)quinoxalin-6-yl)amino)pyrimidin-2-yl)amino)-5-methoxy-2-(1-methyl-1H-pyrazol-4-yl)phenyl)piperidin-4-yl)piperazin-1-yl)methyl)piperidin-1-yl)-2-(2,6-dioxopiperidin-3-yl)-6-fluoroisoindoline-1,3-dione]
16 | < 0.1 | 0.046 | COc1cc(N2CCC(CN3CCN(c4ccc(C5CCC(=O)NC5=O)c(F)c4)CC3)CC2)c(-c2cnn(C)c2)cc1Nc1ncc(Cl)c(Nc2ccccc2P(C)(C)=O)n1 (centres unmarked) [Compound 154, 3-(4-(4-((1-(4-((5-chloro-4-((2-(dimethylphosphoryl)phenyl)amino)pyrimidin-2-yl)amino)-5-methoxy-2-(1-methyl-1H-pyrazol-4-yl)phenyl)piperidin-4-yl)methyl)piperazin-1-yl)-2-fluorophenyl)piperidine-2,6-dione]
